Data as given in US20160038519A1, “ADMINISTRATION OF KARENITECIN FOR THE TREATMENT OF ADVANCED OVARIAN CANCER, INCLUDING CHEMOTHERAPY-RESISTANT AND/OR THE MUCINOUS ADENOCARCINOMA SUB-TYPES” (BioNumerik Pharmaceuticals, Inc., priority 2014, published 2016).
≈ marks a conversion by molar mass, not a printed value. Read-outs that look alike come from different tables or passages of the source.

Key:
[1] = tested on: platinum-refractory epithelial ovarian cancer; conditions: cited from earlier work
[2] = Limit of solubility in cell culture medium; type: physicochemical; conditions: aqueous buffer
Experimental: (§1) The 1050 values exceeded the solubility in medium for each compound—the limit of solubility in cell culture medium for the compounds were as follows: 2 micromolar for BNP1350 and SN38, and 20 micromolar for Topotecan. Cells were treated for periods of 2.5 hours or 6 hours and, in each case, the […] values were not reached. Longer treatments were not performed.

COV644 Cell Line = assay: SRB cytotoxicity assay, COV644; type: cell-based, human
Experimental: (§2) In vitro studies were conducted in human mucinous ovarian cancer cell lines including JHOM2B, OMC3, and COV644. In one series of experiments, the dose response curves for BNP1350 (also known as Karenitecin), SN-38 (Irinotecan), and Topotecan were obtained and IC50 values were determined. In a second series of experiments, the effect of BNP7787 (2,2′-dithio-bis-ethane sulfonate; Tavocept) on BNP1350-induced cytotoxicity at selected BNP1350 concentrations was examined.
(§3) The JHOM2B and OMC3 cell lines were purchased from Riken Cell Bank (Japan). The COV644 cell line was purchased from SigmaAldrich. Cells were maintained as monolayered cultures in T-75 flasks and then seeded to microtiter plate wells for experiments. Population doubling-times for these three cell lines were long (i.e., exceeding 40 hours, and for some of the cell lines approaching 96 hours); therefore, the Applicants conducted initial pilot experiments and determined optimal seeding density to obtain A570 values in untreated controls that would fall within the linear range of the SRB assay after seven (7) total days of cell growth. JHOM2B cells were cultured in DMEM:F12 (1:1)+0.1 mM non-essential amino acids (NEAA)+10% FBS and were seeded at 6,000 cells per well. OMC3 cells were cultured in HamF12+10% FBS and were seeded at 8,000 cells per well. COV644 cells were cultured in DMEM+2 mM glutamine+10% FBS and were seeded at 6,000 cells per well.
(§4) The cells were manipulated in a Microzone laminar flow hood traditionally used for maintaining aseptic environments around automated instrumentation such as microplate robots, and the like. Cells were grown and maintained at 37° C. in a humidified atmosphere containing 5% CO2 in a water jacketed cell culture incubator (Forma Scientific). Cells were counted using a ViCell counter (Beckman-Coulter). An automated plate washer/stacker (ELx405/BioStak from BioTek Instruments) and a microplate reader (SpectraMax Plus from Molecular Devices) were used for conducting the SRB assay and determining A570 values for wells in the plates and the percentage of control values. Prior to SRB assays, cell viability was monitored by evaluation of microtiter plate wells. Dead cells detach and float while living cells remain attached to the bottom of the cell well.
(§5) SN-38 (Irinotecan; Sigma H0165, lot MKBQ4981) and Topotecan (Sigma T2705, lot 052M4728V) were purchased from SigmaAldrich. BNP1350 (lot KN-C192-135) and BNP7787 (lot 205001) were synthesized at BioNumerik Pharmaceuticals, Inc. (San Antonio, Tex.). BNP1350, SN38, and Topotecan were prepared as 2.5, 2.5, and 25 mM stocks in DMSO (ATCC, cell culture grade).
(§6) The sulforhodamine B (SRB) cytotoxicity assay was used to assess cell survival. Briefly, after the medium was decanted from individual plate wells, trichloroacetic acid (100 μL of 10.0 percent solution) was added to each well, and the plates were incubated at 4° C. for 1 hour. The plates were washed five times with water using an automated microplate washer (Model ELx405, Bio-Tek Instruments), SRB solution (100 μL of 0.4% SRB dissolved in 1.0 percent acetic acid) was added, and plates remained at room temperature for 15 minutes. The plates were then washed five times using acetic acid (1.0 percent), air dried, and bound dye was solubilized in Tris base (150 μL, 10 mM). Plates were agitated (gently) for 5 minutes and the absorbance values of the SRB dye-protein adduct at 570 nanometers (A570) were determined using an automated microtiter plate reader (SpectraMax Plus, Molecular Devices). IC50 values were extrapolated from dose response curves of the data using OriginLab Software.
as §1

JHOM2B Cell Line = assay: SRB cytotoxicity assay, JHOM2B; type: cell-based, human; conditions: Homo sapiens
Experimental: as §2, §3, §4, §5, §6

OMC3 Cell Line = assay: SRB cytotoxicity assay, OMC3; type: cell-based, human; conditions: Homo sapiens
Experimental: as §2, §3, §4, §5, §6

MDR-expressing sublines = conditions: cited from earlier work; for Resistance of MDR-expressing sublines relative to parental wild-type cells: comparison studies
[3] = tested on: stage III/IV advanced epithelial ovarian cancer resistant or refractory to platinum- and taxane-based regimens
Experimental: Such Phase III clinical trial is sometimes referred to herein as the “Karenitecin Phase III Trial”.
The Primary Endpoint of the disclosed Karenitecin Phase III Trial was Progression Free Survival (“PFS”); which was defined as the time period from the date of randomization to the date of first radiographically-documented Progressive Disease (“PD”) or date of death due to any cause, taking the event date that occurs first. The date of PD was determined by radiographical objective disease (RECIST) measurement. The Secondary Endpoints of the disclosed Karenitecin Phase III Trial included: (i) Overall Survival (hereinafter “OS”), defined as the time from the date of randomization to the date of death due to any cause; (ii) Incidence of anemia, defined as the proportion of subjects who experience ≧grade 3 anemia based on National Cancer Institute Common Terminology Criteria for Adverse Events (NCI-CTCAE) criteria at any time post-baseline after receiving study treatment; (iii) Incidence of neutropenia (including febrile neutropenia), defined as the proportion of subjects who experience ≧grade 3 neutropenia based on NCI-CTCAE criteria at any time post-baseline after receiving study treatment; and (iv) Incidence of thrombocytopenia, defined as the proportion of subjects who experience ≧grade 3 thrombocytopenia based on NCI-CTCAE criteria at any time post-baseline after receiving study treatment.
Approximately 80 study centers participated in this clinical study. The primary endpoint was Progression Free Survival (PFS); defined as the time period from the date of randomization to the date of first radiographically documented progressive disease or disease progression (“PD”) or date of death due to any cause, taking the event date that occurs first.
The primary endpoint was Progression Free Survival (PFS); defined as the time period from the date of randomization to the date of first radiographically documented progressive disease (PD) or date of death due to any cause, taking the event date that occurs first. The date of PD was determined by radiographically objective disease (RECIST) measurement.
• Overall Survival (OS), defined as the time from the date of randomization to the date of death due to any cause. • Incidence of anemia, defined as the proportion of subjects who experience ≧grade 3 anemia based on National Cancer Institute Common Terminology Criteria for Adverse Events (NCI-CTCAE) criteria at any time post-baseline after receiving study treatment. • Incidence of neutropenia (including febrile neutropenia), defined as the proportion of subjects who experience ≧grade 3 neutropenia based on NCI-CTCAE criteria at any time post-baseline after receiving study treatment. • Incidence of thrombocytopenia, defined as the proportion of subjects who experience ≧grade 3 thrombocytopenia based on NCI-CTCAE criteria at any time post-baseline after receiving study treatment.
During this period, subjects received either Karenitecin (1.0 mg/m^2/day administered as a 60-minute intravenous infusion) or Topotecan (1.5 mg/m^2/day administered as a 30-minute intravenous infusion) daily for 5 consecutive days, every 21 days (one treatment cycle=21 days).

[4] = tested on: human breast, ovarian and lymphoma cancer cell lines; assay: Paclitaxel induced apoptosis (PARP cleavage, Bcl-2 phosphorylation, DNA laddering); type: cell-based
From the text: (§7) Tavocept mediates the non-enzymatic xenobiotic modification of sulfur-containing amino acid residues (e.g., cysteine) on proteins. As an engineered, non-naturally occurring agent (i.e., xenobiotic), Tavocept is autocatalytic and requires no protein cofactor to cause the xenobiotic modification of cysteine, but appears to be specific for cysteine residues located within a particular structural context (i.e., not all cysteines in a protein are so modified). Tavocept-mediated, xenobiotic modification represents a novel mechanism of action for a cancer treating agent and can be compared, to a degree, with post-translational modifications of cysteine residues in proteins (see, Table 3, below). By way of non-limiting example, some of the important elements of Tavocept's effectiveness as a compound in the treatment of cancer are its selectivity for normal cells versus cancer cells and its absence of interference with the anti-cancer activity of cancer treating agents.

[5] = tested on: mucinous cell lines (JHOM2B, OMC3, and COV644); assay: SRB assay, joint statements for the mucinous cell lines incl. effect of BNP7787 on BNP1350-induced cytotoxicity; type: cell-based, human
Experimental: as §2
as §3, with “JHOM2B cells were cultured in DMEM:F12 (1:1)+0.1 mM non-essential amino acids (NEAA)+10% FBS and were seeded at 6,000 cells per well. OMC3 cells were cultured in HamF12+10% FBS and were seeded at 8,000 cells per well. COV644 cells were cultured in DMEM+2 mM glutamine+10% FBS and were seeded at 6,000 cells per well.” left out
as §4, with “Cells were grown and maintained at 37° C. in a humidified atmosphere containing 5% CO2 in a water jacketed cell culture incubator (Forma Scientific).” left out, “Dead cells detach and float while living cells remain attached to the bottom of the cell well.” left out
The sulforhodamine B (SRB) cytotoxicity assay was used to assess cell survival. […] Plates were agitated (gently) for 5 minutes and the absorbance values of the SRB dye-protein adduct at 570 nanometers (A570) were determined using an automated microtiter plate reader (SpectraMax Plus, Molecular Devices). […]

human cancer cell lines = assay: Paclitaxel- and platinum-induced cytotoxicity; type: cell-based
From the text: as §7

[6] = tested on: resistant subline containing less than 4% of the topoisomerase I activity; conditions: subline with less than 4% of topoisomerase I activity; cited from earlier work
[7] = 2 hour drug exposure, average of Test 1 and Test 2, read-out: IC50, Average
[8] = 2 hour drug exposure, read-out: IC50, Test 1 (2 replicate plates)
[9] = 2 hour drug exposure, read-out: IC50, Test 2 (3 replicate plates)
[10] = Mucinous adenocarcinoma subtype

In the case of `N.N.O=C([O-])C1(C(=O)[O-])CCC1.[Pt+2]` [carboplatin], the Stable disease ([1]; 6 subjects) is given as 18%, the “Response rate, subgroup with platinum-free interval of 12 months” value ([1]; 26 subjects (7/26)) is given as 27% and the “Overall response rate to platinum reinduction” value ([1]; 33 subjects, single-agent carboplatin after taxane failure) is given as 21%. The “Median duration of response” value ([1]; in vivo) was ≥ 7 months.
With `CC[C@@]1(O)C(=O)OCc2c1cc1n(c2=O)Cc2cc3c(CN(C)C)c(O)ccc3nc2-1` [Topotecan] the solubility [2] was 20 µM (≈ 8.43 µg/mL), the IC50 (COV644 Cell Line; Homo sapiens, 2, 5, and 6 hour drug exposures, did not reach 50% of Control, read-out: IC50, Test 1 (2 replicate plates)) was > 20 µM and the IC50 (COV644 Cell Line; Homo sapiens, 2, 5, and 6 hour drug exposures, did not reach 50% of Control, read-out: IC50, Test 2 (2 to 3 replicate plates)) was > 20 µM. For the same compound, the IC50 (COV644 Cell Line; Homo sapiens, 2, 5, and 6 hour drug exposures, read-out: IC50, Average) was > 20 µM, the IC50 (COV644 Cell Line; Homo sapiens, read-out: IC50 values) was > 20 µM and the IC50 (JHOM2B Cell Line; [7]) was 5.17 µM. The IC50 (JHOM2B Cell Line; [8]) was 4.75 ± 0.25 µM, the IC50 (JHOM2B Cell Line; [9]) was 5.59 ± 0.28 µM and the IC50 (JHOM2B Cell Line; read-out: IC50 values) was 5.17 µM. It also gave an IC50 (OMC3 Cell Line; [7]) of 3.94 µM, an IC50 (OMC3 Cell Line; [8]) of 3.12 ± 0.18 µM and an IC50 (OMC3 Cell Line; [9]) of 4.76 ± 0.25 µM. For the same compound, the IC50 (OMC3 Cell Line; read-out: IC50 values) was 3.94 µM, the “Resistance of MDR-expressing sublines relative to parental wild-type cells” value (MDR-expressing sublines) was “nine-fold more resistant” and the “Median PFS” value [3, 10] was 9.1 weeks. The “Overall survival (OS), third quartile” value [3, 10] was 19.4 months, the “Median PFS” value ([3]; overall trial population, IRC-determined) was 17.8 weeks and the “Median PFS” value ([3]; refractory or resistant and/or mucinous subpopulation) was 18.7 weeks.
For `COc1cc([C@@H]2c3cc4c(cc3[C@@H](O[C@@H]3O[C@@H]5CO[C@@H](C)O[C@H]5[C@H](O)[C@H]3O)[C@H]3COC(=O)[C@H]23)OCO4)cc(OC)c1O` [etoposide], the “Change in sensitivity typically described for classic MDR substrates” value (MDR-expressing sublines; same experiments) is listed as 200 fold.
In the case of `O=S(=O)([O-])CCSSCCS(=O)(=O)[O-].[Na+].[Na+]` [BNP7787, 2,2′-dithio-bis-ethane sulfonate], the “Interference with paclitaxel induced apoptosis” value [4] is reported as “does not interfere”, the “Effect on BNP1350-induced cytotoxicity” value ([5]; BNP7787 1 or 10 mM added simultaneously with approximate IC50 and IC25 values of BNP1350, each cell line) is reported as “no notable effect” and the “Effect on cell survival as single agent” value ([5]; BNP7787 alone, 1 and 10 mM) is reported as “did not affect cell survival”. For the same compound, the “Interference with paclitaxel- and platinum-induced cytotoxicity” value (human cancer cell lines) was “not to interfere”.
For `CC[C@@]1(O)C(=O)OCc2c1cc1n(c2=O)Cc2cc3ccccc3nc2-1` [camptothecin], the “Resistance of MDR-expressing sublines relative to parental wild-type cells” value (MDR-expressing sublines) is given as “No increase in resistance” and the “Decrease in sensitivity of resistant subline compared with wild-type parental cells” value [6] is given as 1000 fold.
